# In patent US9006255B2, “Quinazoline derivatives” (Merck Patent GmbH, priority 2010, dated 2015):
# pIC50: −log10 of the molar value.
# Columns and labels:
# DNA-PK protein complex = DNA-PK protein complex (Homo sapiens, UniProt P78527); assay: DNA-PK kinase assay (FlashPlate, 33P-ATP); format: biochemical; conditions: biotin-DNA-PK peptide substrate, 5 μM ATP, 90 minutes at room temperature
# Protocol: Description of the Method for the Testing of DNA-PK Inhibitors
# The kinase assay is carried out in […] microtitre FlashPlates®, coated with streptavidin. 1.5 μg of the DNA-PK protein complex and […] of biotinylated substrate, for example PESQEAFADLWKK biotin-NH2 (“biotin-DNA-PK peptide”) in a total volume of 36.5 μl (34.25 mM Hepes/KOH, 7.85 mM Tris-HCl, 68.5 mM KCl, 5 μM ATP, 6.85 mM MgCl2, 0.5 mM EDTA, 0.14 mM EGTA, 0.69 mM DTT, pH 7.4), are incubated at room temperature for 90 minutes with or without test substance in a well containing 500 ng of DNA from calf thymus, 0.1 μCi of 33P-ATP and 1.8% of DMSO. The reaction is stopped by addition of 50 μl/well of 200 mM EDTA. After incubation for 30 minutes, the liquids are removed at room temperature. Each well is washed three times with 100 μl of 0.9% NaCl solution. Non-specific reaction (blank) is determined using a proprietary kinase inhibitor (10 μM). The radioactivity is measured by means of a Topcount. IC50 values calculated in RS1. Literature: Molecular Cancer Therapeutics 2003, 1257-1264; DNA-dependent protein kinase inhibitors as drug candidates for the treatment of cancer; A. Kashishian, H. Douangpanya, D. Clark, S. T. Schlachter, C. Todd Eary, J. G. Schiro, H. Huang, L. E. Burgess, E. A. Kesicki, and J. Halbrook.
# PI3K = assay: Cellular testing of PI3K inhibitors: P-S473-PKB Luminex assay in PC3 cells; format: cell-based; conditions: phosphorylation of PKB at Serin 473, 30 min incubation, serum-free
# Protocol: Description of the Method for the Cellular Testing of PI3K Inhibitors The measure used for the cellular PI3K activity is the PI3K-dependent phosphorylation of PKB at Serin 473. The cellular assay for determination of the P-S473-PKB level is carried out as a Luminex assay in 96-well format in PC3 cells. […] PC3 cells are sown out with 20,000 cells per well in 100 μl medium (45% RPMI1460/45% Ham's F12/10% FCS) and incubated on the following day for 30 min with a serial dilution of the test substance (7 concentrations) under serum-free conditions. The cells are subsequently lysed using 90 μl of lysis buffer (20 mM Tris/HCl pH 8.0, 150 mM NaCl, 1% NP40, 10% glycerol, 1% phosphatase inhibitor I, 1% phosphatase inhibitor II, 0.1% protease inhibitor cocktail III, 0.01% benzonase) per well, and the lysates are separated off from insoluble cell constituents by means of centrifugation through a 96-well filter plate (0.65 μm). The lysates are incubated overnight at 4° C. with shaking with Luminex beads to which an anti-total PKB antibody is coupled. The detection is carried out on the following day by addition of a P-S473-PKB antibody and a species-specific PE-labelled secondary antibody. The detection of P-S473-PKB is carried out by measurement in a Luminex100 instrument by determination of 100 events per cavity in a measurement time of 60 sec. As pharmacological blank, the signals obtained from cells which have been treated with 3 μM wortmannin are subtracted from all other preparations. The control value used for maximum phosphorylation of PKB at S473 are the signals from cells which have been treated only with the solvent (0.3% DMSO). The values of the preparations treated with test substance are calculated from this as percent of control, and IC50 values are determined by means of RS1.
SMILES,pIC50 (DNA-PK protein complex),pIC50 (PI3K)
"c1ccc2c(c1)CCN2c1ncnc2ccc(-c3cnc4[nH]ccc4c3)cc12 [Compound A1, 4-(2,3-dihydroindol-1-yl)-6-(1H-pyrrolo[2,3-b]pyridin-5-yl)quinazoline]",7.00 to 9.00,5.00 to 7.00
"c1ccc2c(c1)CN(c1ncnc3ccc(-c4cnc5[nH]ccc5c4)cc13)C2 [Compound A2, 4-(1,3-dihydroisoindol-2-yl)-6-(1H-pyrrolo[2,3-b]pyridin-5-yl)quinazoline]",7.00 to 9.00,5.00 to 7.00
"c1ccc2c(c1)CCCN2c1ncnc2ccc(-c3cnc4[nH]ccc4c3)cc12 [Compound A3, 4-(3,4-dihydro-2H-quinolin-1-yl)-6-(1H-pyrrolo[2,3-b]pyridin-5-yl)quinazoline]",7.00 to 9.00,5.00 to 7.00
"Cc1nc2cc(-c3ccc4ncnc(N5CCc6ccccc6C5)c4c3)cnc2[nH]1 [Compound A4, 4-(3,4-dihydro-1H-isoquinolin-2-yl)-6-(2-methyl-3H-imidazo[4,5-b]pyridin-6-yl)quinazoline]",7.00 to 9.00,7.00 to 9.00
"Cc1nc2cc(-c3ccc4ncnc(N5CCCc6ccccc65)c4c3)cnc2[nH]1 [Compound A5, 4-(3,4-dihydro-2H-quinolin-1-yl)-6-(2-methyl-3H-imidazo-[4,5-b]pyridin-6-yl)quinazoline]",7.00 to 9.00,5.00 to 7.00
"c1ccc2c(c1)CCN(c1ncnc3ccc(-c4cnc5[nH]ccc5c4)nc13)C2 [Compound A6, 4-(3,4-dihydro-1H-isoquinolin-2-yl)-6-(1H-pyrrolo[2,3-b]pyridin-5-yl)pyrido[3,2-d]pyrimidine]",7.00 to 9.00,5.00 to 7.00
"COc1cc2c(cc1OC)CN(c1ncnc3ccc(-c4cnc5[nH]ccc5c4)nc13)CC2 [Compound A7, 4-(6,7-dimethoxy-3,4-dihydro-1H-isoquinolin-2-yl)-6-(1H-pyrrolo[2,3-b]pyridin-5-yl)pyrido[3,2-d]pyrimidine]",7.00 to 9.00,
"Cc1nc2cc(-c3ccc4ncnc(N5CCc6ccccc6C5)c4n3)cnc2[nH]1 [Compound A8, 4-(3,4-dihydro-1H-isoquinolin-2-yl)-6-(2-methyl-3H-imidazo[4,5-b]pyridin-6-yl)-pyrido[3,2-d]pyrimidine]",7.00 to 9.00,7.00 to 9.00
"COc1cc2c(cc1OC)CN(c1ncnc3ccc(-c4cnc5[nH]c(C)nc5c4)nc13)CC2 [Compound A9, 4-(6,7-dimethoxy-3,4-dihydro-1H-isoquinolin-2-yl)-6-(2-methyl-3H-imidazo[4,5-b]pyridin-6-yl)pyrido[3,2-d]pyrimidine]",7.00 to 9.00,7.00 to 9.00
"CCc1nc2cc(-c3ccc4ncnc(N5CCc6ccccc6C5)c4c3)cnc2[nH]1 [Compound A10, 4-(3,4-dihydro-1H-isoquinolin-2-yl)-6-(2-ethyl-3H-imidazo[4,5-b]pyridin-6-yl)quinazoline]",7.00 to 9.00,7.00 to 9.00
"COc1ccc2c(c1)CN(c1ncnc3ccc(-c4cnc5[nH]c(C)nc5c4)cc13)CC2 [Compound A11, 4-(7-methoxy-3,4-dihydro-1H-isoquinolin-2-yl)-6-(2-methyl-3H-imidazo[4,5-b]pyridin-6-yl)quinazoline]",7.00 to 9.00,7.00 to 9.00
"Cc1nc2cc(-c3ccc4ncnc(N5CCOc6ccccc65)c4c3)cnc2[nH]1 [Compound A12, 4-[6-(2-methyl-3H-imidazo[4,5-b]pyridin-6-yl)quinazolin-4-yl]-3,4-dihydro-2H-benzo-1,4-oxazine]",7.00 to 9.00,5.00 to 7.00
"Cc1nc2cc(-c3ccc4ncnc(N5CCC(=O)c6ccccc65)c4c3)cnc2[nH]1 [Compound A13, 1-[6-(2-methyl-3H-imidazo[4,5-b]pyridin-6-yl)quinazolin-4-yl]-2,3-dihydro-1H-quinolin-4-one]",7.00 to 9.00,5.00 to 7.00
